Experimental data reported in PubChem BioAssay (NCI).
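Growth conditions: 96-well plates. Treatment: test compound, 48 hours, 5 concentrations. Analysis: linear interpolation between bracketing concentrations; unreached endpoints set to highest concentration. Definition used: TGI = concentration required for complete inhibition of growth.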

Legend:
Assay in all cases: inhibition of tumour cell growth, NCI panel, 48 h
786-0 renal = tested on: 786-0 renal
A498 renal = tested on: A498 renal
A549 NSCLC = tested on: A549 NSCLC
ACHN renal = tested on: ACHN renal
BT-549 breast = tested on: BT-549 breast
CAKI-1 renal = tested on: CAKI-1 renal
COLO 205 colon = tested on: COLO 205 colon
DU-145 prostate = tested on: DU-145 prostate
EKVX NSCLC = tested on: EKVX NSCLC
HCC-2998 colon = tested on: HCC-2998 colon
HCT-116 colon = tested on: HCT-116 colon
HCT-15 colon = tested on: HCT-15 colon
HOP-62 NSCLC = tested on: HOP-62 NSCLC
HOP-92 NSCLC = tested on: HOP-92 NSCLC
HS 578T breast = tested on: HS 578T breast
HT29 colon = tested on: HT29 colon
IGROV1 ovarian = tested on: IGROV1 ovarian
KM12 colon = tested on: KM12 colon
LOX IMVI melanoma = tested on: LOX IMVI melanoma
M14 melanoma = tested on: M14 melanoma
MALME-3M melanoma = tested on: MALME-3M melanoma
MCF7 breast = tested on: MCF7 breast
MDA-MB-231 breast = tested on: MDA-MB-231 breast
MDA-MB-435 = tested on: MDA-MB-435
MDA-N = tested on: MDA-N
NCI-H226 lung = tested on: NCI-H226 lung
NCI-H23 lung = tested on: NCI-H23 lung
NCI-H460 lung = tested on: NCI-H460 lung
NCI-H522 lung = tested on: NCI-H522 lung
NCI/ADR-RES ovarian = tested on: NCI/ADR-RES ovarian
OVCAR-3 ovarian = tested on: OVCAR-3 ovarian
OVCAR-4 ovarian = tested on: OVCAR-4 ovarian
OVCAR-5 ovarian = tested on: OVCAR-5 ovarian
OVCAR-8 ovarian = tested on: OVCAR-8 ovarian
PC-3 prostate = tested on: PC-3 prostate
RXF 393 renal = tested on: RXF 393 renal
SF-268 CNS = tested on: SF-268 CNS
SF-295 CNS = tested on: SF-295 CNS
SF-539 CNS = tested on: SF-539 CNS
SK-MEL-2 melanoma = tested on: SK-MEL-2 melanoma
SK-MEL-28 melanoma = tested on: SK-MEL-28 melanoma
SK-MEL-5 melanoma = tested on: SK-MEL-5 melanoma
SK-OV-3 ovarian = tested on: SK-OV-3 ovarian
SNB-19 CNS = tested on: SNB-19 CNS
SW-620 colon = tested on: SW-620 colon
T-47D breast = tested on: T-47D breast
TK-10 renal = tested on: TK-10 renal
U251 CNS = tested on: U251 CNS
UACC-257 melanoma = tested on: UACC-257 melanoma
UACC-62 melanoma = tested on: UACC-62 melanoma

Measured: TGI

O=C1C(C(O)(C(F)(F)Cl)C(F)(F)Cl)CCCC1C(O)(C(F)(F)Cl)C(F)(F)Cl (stereo not given)
> 10 µM: all assays above
